According to US20120269815A1, “NEUROTROPHINS AND USES THEREOF” (Regents of the University of Minnesota, priority 2008, published 2012):
No end group written: not given here.

Assay: Shock sensitization of startle after ICV TUF1 peptide infusion
Type: in vivo, rat
Settings: adult male rats, 1.0 μg or 10 μg ICV
Experimental: a) Intra-cerebroventricular (ICV) Cannulation Male Sprague-Dawley rats weighing 250-400 grams were anesthetized with ketamine (100 mg/kg) and xylazine (7 mg/kg) and placed in a stereotaxic device (David Kopf Instruments Corp., Tunjunga, Calif.) using atraumatic ear bars. An incision of the skin overlying the skull was made and anchor screws were inserted into the skull. Burr holes were drilled to allow the guide cannula to pass into the brain. The guide cannula (22-gauge, C313G; Plastics One, Roanoke, Va.) was placed at 0 mm posterior, 1.2 mm lateral and 3.5 mm ventral to bregma. The cannula was affixed using epoxy glue (Loctite 444; McMaster-Carr, Chicago, Ill.) followed by dental acrylic (Hygienic perm reline & repair resin, Type II, Class I; Henry Schein, Inc., Melville, N.Y.). The cannula was sealed and kept open by insertion of a ‘dummy’ cannula. […]
For fear potentiated startle, shock sensitization, and prepulse inhibition testing, animals were trained and tested in four identical 7.5 cm×9 cm×17 cm stabilimeter devices. […] Shock intensity was measured with a 1-kΩ resistor across a differential channel of an oscilloscope in series with a 100-kΩ resistor connected between two floor bars in each cage. Current was defined as the RMS voltage across the resistor and calculated in mA as 0.707×0.5 ×peak-to-peak voltage. […]

For AYKSYVRALPLL [TUF1[43-54]], the shock sensitization was “No effect”.
